Columns and labels:
[1] = CDD-2807 concentrations in mouse brain, liver, lung, and testis; format: in vivo, mice
Description: Pharmacokinetics (PK) of CDD-2807 in mice. The pharmacokinetic studies (72) of CDD-2807 were performed at three doses via intraperitoneal (i.p.) injection and oral (p.o.) administration.
CDD-2807 was dissolved in 10% Captisol containing 5% DMSO to prepare the solutions of 0.5 mg/mL, 2.5 mg/mL and 5.0 mg/mL. Twelve male mice (strain: C57BL/6NJ, 8−12 weeks) were divided equally and randomly into 4 groups (n = 3 for each dose). One group of mice were administered 5 mg/kg CDD-2807 (i.p., 10 µL/g of 0.5 mg/mL solution), the second group 25 mg/kg CDD-2807 (i.p., 10 µL/g of 2.5 mg/mL solution), the third group 5 mg/kg CDD-2807 (p.o., 10 µL/g of 0.5 mg/mL solution), and the fourth group 50 mg/kg CDD-2807 (p.o., 10 µL/g of 5.0 mg/mL solution). At 0, 5, 10, 15, 30 min, 1, 2, 4, 6, 8, 24 h post-dose, around 20 µL of blood was collected from the tail vein and anti-coagulated by heparin. The blood samples were centrifuged at 2000 g for 3 min at 4°C, and the plasma samples were transferred to tubes and stored at −80°C before analysis. All the samples were analyzed by the Thermo TSQ Quantis MS coupled with a Thermo Vanquish UHPLC (San Jose, CA). CDD-2807 was separated on a Luna C18 column (1 mm × 50 mm, 1.6 µm, Phenomenex, Torrance, CA), and eluted by a water-acetonitrile mobile phase system (both containing 0.1% formic acid, v/v) at the flow rate of 0.15 mL/min. CDD-2807 was monitored under the SRM mode coupled with a positive ESI source. The SRM ion pairs were 447→321 for CDD-2807. The ion spray voltage was set at 3500 V. High-purity nitrogen was used as the sheath gas (35 arbitrary unit), auxiliary gas (7 arbitrary unit), and high-purity argon was used as the collision gas. The temperatures of the ion transfer tube and the vaporizer were set at 300°C and 275°C, respectively. The concentration of CDD-2807 in plasma was quantified using individual calibration curves. The calibration curve was regressed with a weight of 1/x2 with high linearity (r2 >0.99). PK parameters, including half-time (t1/2), area under the plasma concentration– time curve from zero to infinity (AUC0–∞), clearance normalized by the bioavailability (CL/F), volume of distribution normalized by the bioavailability (Vd/F), and the mean residence time (MRT), were calculated by WinNonlin software (Certara, Princeton, NJ) by noncompartmental […]
analysis. […]
CDD-2807 concentrations in mouse brain, liver, lung, and testis. Tissue samples harvested from mice on day 45 of protocol 1 and at 24-hour, day 7, and day 63 of protocol 2 were weighed and snap-frozen in liquid nitrogen. The samples were stored at −80°C before analysis. Twenty-five mg of tissue was homogenized in 150 µL of 50% CH3OH, and 50 µL of homogenate was added to 200 µL of ice-cold CH3OH containing 0.1 µM of agomelatine (internal standard). The mixture was vortexed and centrifuged at 15000 g for 15 min, and supernatants were transferred into sample vials for analysis. CDD-2807 was analyzed by the same method used in the pharmacokinetic study. The concentration of CDD-2807 in the testis and brain was determined by […]
using individual calibration curves established with the corresponding tissue homogenates from untreated mice. The calibration curve was regressed with a weight of 1/x2 with high linearity (r2 […]
Spatial distribution of CDD-2807 in testis. The testis from the mice treated with CDD-2807 were attached to the Leica CM3050 S cryostat (Leica Biosystems, Deer Park, IL) with water and then sectioned at the thickness of 10 μm at −20°C. The sections were attached to electrically conductive glass slides coated with indium tin oxide ([…], 70-100 ohms, Delta Technologies, Loveland, CO). Tissue sections were sprayed with a matrix solution containing 35 mg/mL 2,5-dihydroxybenzoic acid (DHB, Sigma, St. Louis, MO) in 70% aqueous CH3OH with 0.1% trifluoroacetic acid using an HTX TM-Sprayer (HTX Technologies LLC, Carrboro, NC). Sprayer nozzle temperature was set at 70°C, tray temperature at 40°C, nozzle velocity at 1200 mm/min, […]

[2] = Alanine transaminase (ALT) and aspartate transaminase (AST) assays in serum; format: in vivo, mice
Description: Alanine transaminase (ALT) and aspartate transaminase (AST) assays. On day 45 of protocol 1 and day 7 and day 63 of protocol 2, three mice from each protocol were euthanized, and blood was collected through cardiac puncture. The serum was isolated by centrifuging the whole blood samples at 1500 g for 10 min and then maintained on wet ice before analysis. ALT and AST levels were measured in duplicates using assay kits (StanBio, Boerne, TX) according to the manufacturer's instructions. ALT and AST levels were determined using the rate of NADH oxidation, which was quantified by measuring absorbance at 340 nm using a CLARIOstar plate reader (BMG Labtech in Cary, NC). ALT and AST were tested for significance at multiple collection time points, tests for significance included a test for normality (Shapiro-Wilk test) and following the test for normality were then analyzed using an unpaired t-test with significance determined by an alpha of P = 0.05. […]
any significant differences between groups.
Fertility analysis. Sexually mature male C57/129 hybrid mice were randomly assigned to either the vehicle control treatment or the CDD-2807 treatment groups. Drug formulation and injections were as follows: for protocol 1 mice receiving the 15 mg/kg CDD-2807 twice daily dosing had the compound dissolved in DMSO, which was injected at 5% of the final volume in 10% Captisol and water. For protocol 2 mice receiving a single daily dose of 50 mg/kg CDD-2807, the compound was dissolved in DMSO and injected at 5% in 20% Captisol and water. All injections were administered as i.p. injections, and for the 15 mg/kg CDD-2807 and DMSO control mice, the injections were delivered in the morning and the evening. Mice in the 50 mg/kg dosing received i.p. injections once in the evening. Weights were measured daily prior to drug administration and monitored throughout the entirety of the injection period. […]

Question: What does the source list for O=C(c1ccc2[nH]nc(C#Cc3ccccc3-c3ccccc3)c2c1)N1CC2(CCCNC2)C1 [CDD-2807]?
Answer: concentration at 7 day ([1]; C57/129 hybrid, mouse, testis, intraperitoneal, 50 mg/kg/day over 7 days): ~24000 ng/g; concentration at 45 day ([1]; male, C57/129 hybrid, mouse, testis, ip, protocol 1 (15 mg/kg i.p. twice per day), day 45): 89600 ± 14100 ng/g; concentration at 63 day ([1]; male, C57/129 hybrid, mouse, testis, ip, protocol 2 (50 mg/kg i.p. once per day), day 63): 114000 ± 7900 ng/g; CDD-2807 in brain ([1]; protocol 1, day 45, collection 12 hours after dosing): 0.28 ± 0.09 ng of CDD-2807 per milligram of tissue; CDD-2807 in lung ([1]; protocol 1 and 2 mice): low levels; CDD-2807 in brain ([1]; protocol 2, day 63, collection 24 hours after dosing): undetectable; ALT ([2]; Protocol 1, 45 Days): 20.33 ± 5.30 IU/L; AST ([2]; Protocol 1, 45 Days): 35.80 ± 3.09 IU/L; ALT ([2]; Protocol 2, 7 Days): 23.65 ± 2.50 IU/L; AST ([2]; Protocol 2, 7 Days): 21.66 ± 3.30 IU/L; ALT ([2]; Protocol 2, 63 Days): 45.97 ± 11.04 IU/L; AST ([2]; Protocol 2, 63 Days): 29.76 ± 6.79 IU/L

From article PMC11842024, “Reversible male contraception by targeted inhibition of serine/threonine kinase 33” (Science (New York, N.Y.), 2024)
